According to patent US20030229134A1, “Methods for stimulating nervous system regeneration and repair by inhibiting phosphodiesterase type 4” (priority 2000, published 2003):

Tests used:
rat model of arthritis = details: higher concentrations (5-10 and 20 umol/kg), rats; cited from earlier work
[1] = test system: cerebellar neurons on MAG-expressing Chinese hamster ovary (CHO) cells; experiment: Direct treatment of cerebellar neurons with rolipram; neurite outgrowth on MAG-expressing CHO cells; format: cell-based, rat
Experimental: Cerebellar neurons from P5 rats were isolated as described previously (Cai et al., 1999) Briefly, cerebellum was treated with 0.025% of trypsin, triturated and incubated for 10 min at 37° C. Trypsinization was stopped by adding an equal amount of DMEM containing 10% fetal calf serum (FCS). Cells were centrifuged at 800 rpm for 5 min. The cells were resuspended to a single-cell suspension in 2 ml of SATO (see Cai et al., 1999, herein incorporated by reference). The concentration of cells were adjusted to 6×10^4 cells/ml. […] Where indicated, dbcAMP (1 mM) or rolipram (0.1 uM, 0.25 uM, 0.5 uM or 1.0 uM) was added to the media. After 18 hours of culture, neurons were fixed and immunostained with a rabbit polyclonal antibody against […] (GAP43) to visualize the neurites. The length of the longest neurite of the first two hundred GAP43-positive neurons was determined using the Simple 32™ software (see Cai et al., 1999). The mean length of a neurite was determined and presented as the average length+/−SEM in micrometers (um). Results are expressed as a percentage of neurite length from neurons grown in the absence of dbcAMP or rolipram.

[2] = test system: rats with moderate spinal cord contusion; experiment: Moderate contusive injury to the spinal cord; BBB test of hindlimb locomotion; format: in vivo, rat
Description: (§1) A “BBB Score” is the result of a test developed by Basso, Beattie and Bresnahan as a modifed 21-point open field locomoter scale on which to measure the extent of recovery of motor function in rats with after spinal cord injury. See, e.g, Basso et al., J. Neurotrauma 13(7):343-59 (1996); Beattie et al. (1997), herein incorporated by reference.
Adult rat spinal cord were exposed and injured with a weight drop device (NYU). See Beattie et al. (1997) and Basso et al. (1996). At the same time as the injury was inflicted, rolipram was delivered subcutaneously via minipumps at 0.07 nmol/kg/hour for 2 weeks. One week after injury, Schwann cells, which had been grown and purified in culture, were injected into the lesion site along with 4 injections, each of 0.2 ul, of 1 mM dbcAMP. As a negative control, animals were injected with Schwann cells alone. Other animals were administered dbcAMP and Schwann cells. One group of animals was administered four injections, each of 0.2 ul, of 1 mM dbcAMP one week after injury. Another group was administered four injections, each of 0.2 ul, of 50 mM dbcAMP one week after injury. Another group was administered four injections, each of 0.2 ul, of 50 mM dbcAMP one day after injury. Animals were assessed on a weekly basis for hindlimb locomotion using the BBB test.

[3] = test system: cerebellar neurons on purified, immobilized myelin; experiment: Priming of cerebellar neurons with rolipram; neurite outgrowth on purified, immobilized myelin; format: cell-based, rat; details: priming with rolipram 0.25 uM, FIG. 2B
Experimental: (§2) Isolated cerebellar neurons in SATO media (prepared as in Example 1) were plated onto poly-L-lysine-coated dishes at 1×10^6 cells/dish. Where indicated, either BDNF at a concentration of 200 ng/ml, or rolipram at a concentration 0.1 uM or 0.25 uM (all from Sigma) was added. After culture for 18 hours (termed priming), neurons were removed with 0.1% trypsin. Trypsinization was stopped by adding 5 ml of DMEM containing 10% FCS. The primed neurons were centrifuged at 800 rpm for 6 min and resuspended in SATO media. The concentration of cells were adjusted to 6×10^4 cells/ml. […] Myelin was prepared as described previously (Cai et al., 1999) from rat CNS white matter. Neurons were cultured overnight before being fixed and immunostained for GAP43 to visualize the neurites. The length of the longest neurite per neuron, from 180-200 neurons, was measured. Results are presented as the average length+/−SEM in micrometers (um). (See, e.g., U.S. Pat. Nos. 5,932,542 and 6,203,792).

[4] = test system: DRG neurons on MAG-expressing CHO cells; experiment: Continuous subcutaneous rolipram delivery by minipumps to P30 rats; neurite outgrowth of isolated DRG neurons on MAG-expressing CHO cells; format: in vivo, rat; details: for axonal outgrowth in the presence of MAG and on control CHO cells: minipump 0.4 umol/kg/hour
Experimental: Rolipram was delivered subcutaneously with ALZET 2001 minipumps. Minipumps were inserted subcutaneously under the skin of the animals' backs. Two minipumps were used for each animal; the combined flow rate was 2 ul/hour. Rolipram was dissolved in DMSO and sterile saline was added to adjust the doses of rolipram that were released from minipumps every hour. After 24 hours of treatment, DRG neurons were isolated from control and treated animals and plated onto a monolayer of MAG-expressing CHO cells or a monolayer of control CHO cells. Neurons were cultured overnight before being fixed and immunostained for GAP43 to visualize the neurites. The length of the longest neurite per neuron from 180-200 neurons was measured. Results are expressed as a percentage of growth of the neurons isolated from control animals and are shown as the average length+/−SEM presented as percentage of growth on control cells.
In order to determine whether longer continuous treatment with a PDE4 inhibitor would increase the relief of inhibition of neurite outgrowth by myelin or MAG, rolipram was administered subcutaneously by minipump (0.4 umol/kg/hour). After 1, 2 or 3 days of continuous rolipram treatment, DRG neurons were isolated from control and treated animals and plated onto a monolayer of MAG-expressing CHO cells or a monolayer of control CHO cells. Neurons were cultured overnight before being fixed and immunostained for GAP43 to visualize the neurites. The length of the longest neurite per neuron from 180-200 neurons was measured. Results are expressed as a percentage of growth of the neurons isolated from control animals and are shown as the average length+/−SEM, presented as a percentage of growth on control cells.

[5] = test system: cerebellar neurons and DRG neurons on MAG-expressing CHO cells; experiment: Subcutaneous rolipram injections into P12 rats; neurite outgrowth of isolated neurons on MAG-expressing CHO cells; format: in vivo, rat
Experimental: (§3) In order to determine whether a PDE4 specific inhibitor could be used to prime neurons in vivo and prevent inhibition of neurite outgrowth by myelin and MAG, rolipram was injected subcutaneously into P12 and P30 rats every 3 hours for 24 hours. For all experiments, rolipram was dissolved in DMSO and sterile saline was added to adjust the concentrations. The final volume of the rolipram solution was 0.2 ml for each injection. At each time point, a single rolipram injection was given. Rolipram was injected subcutaneously with insulin syringes (Becton Dickinson 1 ccU-100 insulin Syringe) under the skin of the rat's neck (for all experiments) and in various other regions (only for first experiment using P12 rats). Control animals were injected with a 0.2 ml mixture of DMSO and sterile saline without rolipram, following the same schedule.
Rolipram was injected subcutaneously into P12 rats at concentrations of 0, 7.5, 20, 25 or 40 nmol/kg every 3 hours for 24 hours before sacrificing. […] Cerebellar neurons were isolated as described in Example 1. Dorsal root ganglia (DRG) neurons were isolated as described previously (De Bellard et al., 1996). Briefly, ganglia were removed from the animals and incubated in 5 ml of SATO media containing 0.025% of trypsin and 0.15% of collagenase type I (Worthington) for 1 hour at 37° C. The ganglia were triturated and trypsinization was stopped by adding 5 ml of DMEM containing 10% FCS. Ganglia were centrifuged at 800 rpm for 6 min, and resuspended in SATO. Neurons were cultured overnight on CHO monolayers as described in Example 1 before being fixed and immunostained for GAP43 to visualize the neurites, as described in Example 1. As a positive control, some neurons from control animals were also cultured overnight in the presence of 1 mM dbcAMP. The length of the longest neurite per neuron, from 180-200 neurons, was measured and results are the average length+/−SEM. Results are expressed as a percentage of growth of the neurons isolated from control animals, treated with saline/DMSO injections and plated on control CHO cells, without dbcAMP or rolipram treatment.

hippocampal slices = details: cited from earlier work
[6] = test system: rats with complete spinal cord transection; experiment: Complete transection of the spinal cord with Schwann cell bridge; BBB test of hindlimb locomotion; format: in vivo, rat
Description: as §1
Adult rat spinal cords were completely transected at the T8 cord level and the next caudal segment was removed (Xu et al. (1997), herein incorporated by reference). Schwann cells were purified in culture from adult rat sciatic nerve, suspended in Matrigel: DMEM (30:70), and drawn into 8 mm long polymeric guidance channels at a density of 120×10^6 cells/ml. Xu et al. (1997). Each cut stump was inserted 1 mm into the channel. At the time of transection, a Schwann cell bridge was implanted at the injury site and rolipram was delivered subcutaneously via minipump at 0.07 umol/kg/hour for two weeks as described in Example 3B. As a negative control, animals were delivered saline only. As a positive control, 5 ul of 10 mM dbcAMP was infused in the proximal and distal stump of the lesion in animals. Animals were assessed on a weekly basis for hindlimb locomotion, which is a measure of their motor recovery, using the BBB test.

[7] = test system: cerebellar neurons on MAG-expressing CHO cells; experiment: Priming of cerebellar neurons with rolipram; neurite outgrowth on MAG-expressing CHO cells; format: cell-based, rat; details: BDNF 200 ng/ml
Experimental: as §2

mice = details: cited from earlier work
rats = details: cited from earlier work
[8] = test system: animal model for multiple sclerosis; details: cited from earlier work
[9] = test system: DRG neurons on MAG-expressing CHO cells; experiment: Subcutaneous rolipram injections into P30 rats; neurite outgrowth of isolated DRG neurons on MAG-expressing CHO cells; format: in vivo, rat
Experimental: as §3
In a second series of experiments, we injected increasing concentrations of rolipram subcutaneously into older animals (postnatal day 30; P30) every 3 hours for 24 hours and, as above, studied neurite outgrowth of isolated DRG neurons in the presence or absence of MAG.
DRG neurons were isolated from control and treated P30 animals and plated onto a monolayer of MAG-expressing CHO cells or a monolayer of control CHO cells. Neurons were cultured overnight before being fixed and immunostained for GAP43 to visualize the neurites, as described in Example 1. The length of the longest neurite per neuron from 180-200 neurons was measured. Results are expressed as a percentage of growth of the neurons isolated from control animals and are shown as the average length+/−SEM presented as a percentage of growth on control cells.
We next determined whether the effects of rolipram were time dependent. Rolipram (0.5 umol/kg) was administered by repeated subcutaneous injections to P30 rats for increasing amounts of time. DRG neurons were isolated from control and treated animals and plated onto a monolayer of MAG-expressing CHO cells or a monolayer of control CHO cells. Neurons were cultured overnight before being fixed and immunostained for GAP43 to visualize the neurites. The lengths of the longest neurite per neuron from 180-200 neurons were measured. Results are expressed as a percentage of growth of the neurons isolated from control animals and are shown as the average length+/−SEM presented as percentage of growth on control cells.

crossing of the blood brain barrier ([5]; inferred from effect on cerebellar (CNS) and DRG neurons after s.c. administration): crossed the blood brain barrier
Compound: COc1ccc(C2CNC(=O)C2)cc1OC1CCCC1 (stereo not shown) [rolipram]
side effects (rat model of arthritis): No side effects
inhibition of axonal outgrowth by MAG ([1]; rolipram 0.25 uM-1.0 uM in media, 18 hours culture, P5 rat cerebellar neurons, FIG. 1): partially blocks
efficiency of blocking the inhibition of axonal outgrowth by MAG compared to dibutyryl-cAMP ([1]; rolipram 0.5 uM, comparator dbcAMP 1 mM): 80%
dose dependence of the effect on MAG inhibition of axonal outgrowth ([1]; rolipram 0.1-1.0 uM): dose-dependent
motor skill recovery as measured by the BBB score ([2]; adult rats, minipump s.c. 0.07 nmol/kg/hour for 2 weeks plus Schwann cells and 4 injections of 1 mM dbcAMP one week after injury, from 2 up to 7 weeks after injury): significantly improved
BBB score achieved ([2]; continuous rolipram plus Schwann cells and dbcAMP, greater than 15 is scored as complete recovery): greater than 15
inhibition of axonal growth by myelin after priming [3]: overcomes inhibition
axonal outgrowth in the presence of MAG and on control CHO cells ([4]; 2 days): significantly promoted
axonal outgrowth in the presence of MAG and on control CHO cells ([4]; 3 days): even further promoted
optimal continuous dose for subsequent neuronal growth and regeneration ([4]; s.c. minipump, 0.4, 0.5, 0.7 umol/kg/hour tested): 0.4 µmol/kg/h
inhibition of DRG neurons by MAG after 24 hours of continuous treatment ([4]; s.c. minipump, 24 hours): no longer inhibited by MAG
subsequent inhibition of neuronal growth by MAG ([5]; P12 rats, 7.5 nmol/kg s.c. every 3 hours for 24 hours): effectively blocks
inhibition of neuronal growth by MAG ([5]; P12 rats, 25 nmol/kg s.c. every 3 hours for 24 hours): essentially completely blocked
most effective subcutaneous dose for relieving MAG inhibition ([5]; P12 rats, s.c. every 3 hours for 24 hours): 20 nmol/kg
neurite length on control CHO cells ([5]; P12 rats, s.c. injections for 24 hours, control cells not expressing MAG): did not affect neurite length
basal cAMP levels (hippocampal slices; 1.0-3.0 umol/kg): Increased basal cAMP levels
basal cAMP levels in hippocampal slices (hippocampal slices; up to 0.3 umol/kg): did not raise basal cAMP levels
BBB score (motor recovery) ([6]; adult rats, complete transection at T8, Schwann cell bridge, minipump s.c. 0.07 umol/kg/hour for two weeks, vs saline): significantly increases
BBB score compared with administration of dbcAMP ([6]; rolipram 0.07 umol/kg/hour s.c., dbcAMP 5 ul of 10 mM infused in the stumps): essentially the same result
blocking inhibition of axonal outgrowth by MAG after priming, compared with BDNF priming ([7]; priming 18 hours with rolipram 0.25 uM, FIG. 2): almost as effective as priming cerebellar neurons with BDNF
length of neurites on monolayer of CHO cells expressing MAG, as % of length of neurons treated with BDNF ([7]; priming with rolipram 0.25 uM): 95%
memory improving effects (mice; 3.0 umol/kg): did not have memory improving effects
side effects (mice; 0.1-3.0 umol/kg): No side effects
performance in a hippocampus-dependent memory task (mice; mice, 0.1 umol/kg s.c.): improved the performance
concentrations at which sedative effects were demonstrated (rats): 5 to 10 µmol/kg
anti-inflammatory effect [8]: demonstrated
length of the neurites, 1, 2 and 3 days of treatment compared ([9]; 0.5 umol/kg intermittent s.c. injections every three hours): no significant difference
length of the axons of DRG neurons, 24 hours treatment in comparison to 6 hours ([9]; 0.5 umol/kg repeated s.c. injections, FIG. 5): increased
inhibition of axonal outgrowth by MAG ([9]; 0.1-2.0 umol/kg s.c. every 3 hours for 24 hours, FIG. 4): blocked (i.e., relieved) by rolipram in a dose-dependent manner
most effective subcutaneous dose for relieving MAG inhibition ([9]; s.c. every 3 hours for 24 hours): 0.5 µmol/kg
